In patent US9440978B2, “Imidazolo-, oxazolo-, and thiazolopyrimidine modulators of TRPV1” (Janssen Pharmaceutica NV, priority 2007, dated 2016):
Counter-ions that a name gives are not always drawn. Like-named read-outs stand apart in the source and are kept apart here.

Key:
[1] = target: T1, rat TRPV1 (Rattus norvegicus, UniProt O35433); assay: Block of capsaicin-induced Ca2+ influx, rat assay (rTRPV1/HEK293, FLIPR); type: cell-based
T1 construct: expressed in transfected cells; host or cells: HEK293
Method in brief: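 HEK293 cells expressing rat TRPV1, Fluo-3 loaded, preincubated 30 min with compound in 20 μM Ca2+ buffer (serial three-fold dilutions, usually from 10 μM, duplicate). Capsaicin-evoked fluorescence change over 100 s measured on FLIPR; IC50 by non-linear regression, averaged across runs.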

[2] = target: T2, human TRPV1 (Homo sapiens, UniProt Q8NER1); assay: Block of capsaicin-induced Ca2+ influx, human assay (hTRPV1/HEK293, FLIPR); type: cell-based; conditions: HEK293 cells transfected with human TRPV1; 150 nM capsaicin challenge; mean; > value = solubility limit in assay medium
T2 construct: expressed in transfected cells; host or cells: HEK293

[3] = HEK293 cells transfected with rat TRPV1, capsaicin challenge, mean, > value = solubility limit in assay medium, read-out: Rat IC50

T2 sequence (Q8NER1 whole entry): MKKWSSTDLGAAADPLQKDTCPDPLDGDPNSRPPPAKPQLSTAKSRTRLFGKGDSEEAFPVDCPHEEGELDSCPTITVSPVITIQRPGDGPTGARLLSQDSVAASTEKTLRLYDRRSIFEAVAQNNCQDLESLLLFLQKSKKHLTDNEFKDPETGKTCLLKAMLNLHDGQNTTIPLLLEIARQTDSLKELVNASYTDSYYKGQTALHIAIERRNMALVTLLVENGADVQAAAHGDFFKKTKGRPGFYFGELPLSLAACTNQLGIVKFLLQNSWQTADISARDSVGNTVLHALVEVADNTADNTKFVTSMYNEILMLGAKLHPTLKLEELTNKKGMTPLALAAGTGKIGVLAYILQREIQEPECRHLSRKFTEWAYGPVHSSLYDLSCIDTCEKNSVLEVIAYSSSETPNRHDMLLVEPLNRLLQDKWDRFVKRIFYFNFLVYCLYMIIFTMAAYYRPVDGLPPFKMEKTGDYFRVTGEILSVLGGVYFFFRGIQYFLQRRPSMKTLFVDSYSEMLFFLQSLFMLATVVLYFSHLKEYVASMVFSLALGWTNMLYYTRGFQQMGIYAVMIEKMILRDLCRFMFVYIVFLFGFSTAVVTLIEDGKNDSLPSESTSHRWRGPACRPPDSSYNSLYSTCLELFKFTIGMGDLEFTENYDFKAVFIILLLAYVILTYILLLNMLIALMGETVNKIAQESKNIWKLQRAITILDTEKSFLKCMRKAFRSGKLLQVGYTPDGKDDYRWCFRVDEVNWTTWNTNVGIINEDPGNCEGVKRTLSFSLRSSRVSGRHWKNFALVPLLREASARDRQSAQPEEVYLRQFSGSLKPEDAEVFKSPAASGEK
T1 sequence (O35433 whole entry): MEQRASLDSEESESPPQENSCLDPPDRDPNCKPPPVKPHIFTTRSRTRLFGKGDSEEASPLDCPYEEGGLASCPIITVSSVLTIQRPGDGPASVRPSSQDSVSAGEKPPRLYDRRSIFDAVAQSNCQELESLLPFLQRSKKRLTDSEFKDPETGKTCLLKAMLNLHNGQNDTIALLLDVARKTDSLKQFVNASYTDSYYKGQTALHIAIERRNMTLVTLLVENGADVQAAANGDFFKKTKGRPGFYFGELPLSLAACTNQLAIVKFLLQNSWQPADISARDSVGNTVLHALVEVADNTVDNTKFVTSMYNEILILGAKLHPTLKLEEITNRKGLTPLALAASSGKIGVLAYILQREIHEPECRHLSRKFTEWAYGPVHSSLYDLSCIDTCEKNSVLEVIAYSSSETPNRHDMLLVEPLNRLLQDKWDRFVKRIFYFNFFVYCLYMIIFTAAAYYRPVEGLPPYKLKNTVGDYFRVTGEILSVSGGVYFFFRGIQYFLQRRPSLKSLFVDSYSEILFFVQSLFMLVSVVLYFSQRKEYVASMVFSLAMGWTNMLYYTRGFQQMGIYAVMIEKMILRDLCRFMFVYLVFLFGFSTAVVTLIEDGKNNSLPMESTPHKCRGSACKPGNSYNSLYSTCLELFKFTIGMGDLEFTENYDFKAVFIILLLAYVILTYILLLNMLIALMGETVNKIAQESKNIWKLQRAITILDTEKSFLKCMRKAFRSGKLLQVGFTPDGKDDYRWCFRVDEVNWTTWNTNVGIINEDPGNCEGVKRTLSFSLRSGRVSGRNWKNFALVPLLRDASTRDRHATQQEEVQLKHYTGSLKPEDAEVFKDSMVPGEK

Structure (SMILES) | IC50 [1, 3] [nM] | IC50 [2] [nM] | IC50 [1] [nM]
CC(C)CN(CC(C)C)c1nc(Nc2ccc(C(F)(F)F)cc2)c2nc(Cc3c(Cl)cccc3Cl)sc2n1 [Example 80, 2-(2,6-Dichloro-benzyl)-N^5,N^5-diisobutyl-N^7-(4-trifluoromethyl-phenyl)-thiazolo[5,4-d]pyrimidine-5,7-diamine] | 4040 | 4650 | –
CC(C)CN1CCN(c2nc(Nc3ccc(C(F)(F)F)cc3)c3nc(Cc4c(Cl)cccc4Cl)sc3n2)CC1 [Example 83, [2-(2,6-Dichloro-benzyl)-5-(4-isobutyl-piperazin-1-yl)-thiazolo[5,4-d]pyrimidin-7-yl]-(4-trifluoromethyl-phenyl)-amine trifluoroacetic acid salt] | 12 | 136 | –
FC(F)(F)c1ccc(Nc2nc(NCc3ccccn3)nc3sc(Cc4c(Cl)cccc4Cl)nc23)cc1 [Example 84, 2-(2,6-Dichloro-benzyl)-N^5-pyridin-2-ylmethyl-N^7-(4-trifluoromethyl-phenyl)-thiazolo[5,4-d]pyrimidine-5,7-diamine trifluoroacetic acid salt] | 38 | 263 | –
FC(F)(F)c1ccc(Nc2nc(NCc3cccnc3)nc3sc(Cc4c(Cl)cccc4Cl)nc23)cc1 [Example 85, 2-(2,6-Dichloro-benzyl)-N^5-pyridin-3-ylmethyl-N^7-(4-trifluoromethyl-phenyl)-thiazolo[5,4-d]pyrimidine-5,7-diamine trifluoroacetic acid salt] | 112 | 433 | –
FC(F)(F)c1ccc(Nc2nc(NCc3ccncc3)nc3sc(Cc4c(Cl)cccc4Cl)nc23)cc1 [Example 86, 2-(2,6-Dichloro-benzyl)-N^5-pyridin-4-ylmethyl-N^7-(4-trifluoromethyl-phenyl)-thiazolo[5,4-d]pyrimidine-5,7-diamine trifluoroacetic acid salt] | 187 | 1070 | –
CC(Nc1nc(Nc2ccc(C(F)(F)F)cc2)c2nc(Cc3c(Cl)cccc3Cl)sc2n1)c1ccccn1 (stereo not shown) [Example 87, 2-(2,6-Dichlorobenzyl)-N^5-(1-pyridin-2-ylethyl)-N^7-[4-(trifluoromethyl)phenyl][1,3]thiazolo[5,4-d]pyrimidine-5,7-diamine] | 21 | 50 | –
CCN1CCCC1CNc1nc(Nc2ccc(C(F)(F)F)cc2)c2nc(Cc3c(Cl)cccc3Cl)sc2n1 (stereo not shown) [Example 88, 2-(2,6-Dichlorobenzyl)-N^5-[(1-ethylpyrrolidin-2-yl)methyl]-N^7-[4-(trifluoromethyl)phenyl][1,3]thiazolo[5,4-d]pyrimidine-5,7-diamine] | 1040 | 964 | –
FC(F)(F)c1ccc(Nc2nc(NCC3CCCCN3)nc3sc(Cc4c(Cl)cccc4Cl)nc23)cc1 (stereo not shown) [Example 90, 2-(2,6-Dichlorobenzyl)-N^5-(piperidin-2-ylmethyl)-N^7-[4-(trifluoromethyl)phenyl][1,3]thiazolo[5,4-d]pyrimidine-5,7-diamine hydrochloride salt] | 9710 | 6050 | –
FC(F)(F)c1ccc(Nc2nc(NCC3CCCNC3)nc3sc(Cc4c(Cl)cccc4Cl)nc23)cc1 (stereo not shown) [Example 91, 2-(2,6-Dichlorobenzyl)-N^5-(piperidin-3-ylmethyl)-N^7-[4-(trifluoromethyl)phenyl][1,3]thiazolo[5,4-d]pyrimidine-5,7-diamine hydrochloride salt] | 3160 | 4050 | –
FC(F)(F)c1ccc(Nc2nc(NCC3CCNCC3)nc3sc(Cc4c(Cl)cccc4Cl)nc23)cc1 [Example 92, 2-(2,6-Dichlorobenzyl)-N^5-(piperidin-4-ylmethyl)-N^7-[4-(trifluoromethyl)phenyl][1,3]thiazolo[5,4-d]pyrimidine-5,7-diamine hydrochloride salt] | 4340 | 4720 | –
CC(C)[Si](Sc1ccccc1Cc1nc2c(Nc3ccc(C(F)(F)F)cc3)ncnc2s1)(C(C)C)C(C)C [Example 104, (4-Trifluoromethyl-phenyl)-[2-(2-triisopropylsilanylsulfanyl-benzyl)-thiazolo[5,4-d]pyrimidin-7-yl]-amine] | – | 125 | 69

Further lines, with some results ahead:

IC50 [1, 3] [nM] | IC50 [2] [nM] | Structure (SMILES) | IC50 [1] [nM]
231 | 276 | FC(F)(F)c1cnc(Nc2ncnc3sc(Cc4c(Cl)cccc4Cl)nc23)cn1 [Example 93, [2-(2,6-Dichloro-benzyl)-thiazolo[5,4-d]pyrimidin-7-yl]-(5-trifluoromethyl-pyrazin-2-yl)-amine] | –
246 | 924 | FC(F)(F)c1ccc(Nc2ncnc3sc(Cc4c(Cl)cccc4Cl)nc23)nc1 [Example 94, [2-(2,6-Dichloro-benzyl)-thiazolo[5,4-d]pyrimidin-7-yl]-(5-trifluoromethyl-pyridin-2-yl)-amine] | –
119 | 292 | FC(F)(F)c1ccc(Nc2ncnc3sc(Cc4ccccc4C(F)(F)F)nc23)nc1 [Example 95, 2-[2-(Trifluoromethyl)benzyl]-N-[5-(trifluoromethyl)pyridin-2-yl][1,3]thiazolo[5,4-d]pyrimidin-7-amine] | –
224 | 466 | FC(F)(F)c1ccc(Nc2ncnc3sc(Cc4ccccc4Cl)nc23)nc1 [Example 96, [2-(2-Chloro-benzyl)-thiazolo[5,4-d]pyrimidin-7-yl]-(5-trifluoromethyl-pyridin-2-yl)-amine] | –
158 | 1030 | Cc1nc(Nc2ccc(C(F)(F)F)cn2)c2nc(Cc3c(Cl)cccc3Cl)sc2n1 [Example 97, [2-(2,6-Dichloro-benzyl)-5-methyl-thiazolo[5,4-d]ovrimidin-7-yl]-(5-trifluoromethyl-hyridin-2-yl)-amine] | –
62 | 126 | N#Cc1ccccc1Cc1nc2c(Nc3ccc(C(F)(F)F)cc3)ncnc2s1 [Example 100, 2-[7-(4-Trifluoromethyl-phenylamino)-thiazolo[5,4-d]pyrimidin-2-ylmethyl]-benzonitrile] | –
34 | 207 | COc1nc(Nc2ccc(C(F)(F)F)cc2)c2nc(Cc3c(Cl)cccc3Cl)sc2n1 [Example 101, [2-(2,6-Dichloro-benzyl)-5-methoxy-thiazolo[5,4-d]pyrimidin-7-yl]-(4-trifluoromethyl-phenyl)-amine] | –
74 | 188 | CC(C)Oc1nc(Nc2ccc(C(F)(F)F)cc2)c2nc(Cc3c(Cl)cccc3Cl)sc2n1 [Example 102, [2-(2,6-Dichloro-benzyl)-5-isopropoxy-thiazolo[5,4-d]pyrimidin-7-yl]-(4-trifluoromethyl-phenyl)-amine] | –
1230 | 1640 | FC(F)(F)c1ccc(Nc2ncnc3sc(Cc4ccccc4-c4ccccc4)nc23)cc1 [Example 105, (2-Biphenyl-2-ylmethylthiazolo[5,4-d]pyrimidin-7-yl)-(4-trifluoromethylphenyl)-amine] | –
343 | 1010 | Oc1ccccc1-c1ccccc1Cc1nc2c(Nc3ccc(C(F)(F)F)cc3)ncnc2s1 [Example 106, 2′-[7-(4-Trifluoromethylphenylamino)-thiazolo[5,4-d]pyrimidin-2-ylmethyl]-biphenyl-2-ol] | –
1530 | 6960 | NC(=O)c1ccc(-c2ccccc2Cc2nc3c(Nc4ccc(C(F)(F)F)cc4)ncnc3s2)cc1 [Example 107, 2′-[7-(4-Trifluoromethylphenylamino)-thiazolo[5,4-d]pyrimidin-2-ylmethyl]-biphenyl-4-carboxylic acid amide] | –
116 | 716 | FC(F)(F)c1ccc(Nc2ncnc3[nH]c(Cc4c(Cl)cccc4Cl)nc23)cc1 [Example 109, [8-(2,6-Dichloro-benzyl)-9H-purin-6-yl]-(4-trifluoromethyl-phenyl)-amine trifluoroacetic acid salt] | –
